Measurements from PubChem BioAssay AID588404 (Broad Institute, 2011).
Inconclusive results are not listed. Calls of active or inactive are those of the source.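 The calls were made as follows: active = every replicate run active, meaning lowered signal with potency within ten times the top valid dose; inconclusive = runs neither all active nor all inactive; inactive = all replicate runs inactive, including opposite-direction effects.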

Tested on: not listed separately
Experiment: yeast relying on human Hsp90, growth inhibitors – plate reader, dry powder samples, counter-screen for P. falciparum Hsp90 inhibitor project, dose response (AID 588404)
Conditions: S. cerevisiae expressing HsHsp90, growth, BacTiter-Glo 48 h; at 150 µM (top of the series)

Row | SMILES | activity change, negative = inhibition
1 | O=C1C(Cl)=C(NCCc2ccccc2)C(=O)c2ccccc21 | 20.9% (inactive)
2 | COc1ccc2c(c1)[nH]c1c(C)nccc12 | 9.79% (inactive)

Tested on: S. cerevisiae expressing HsHsp90, growth, BacTiter-Glo 48 h
Experiment: as above
Conditions: not given

Row | SMILES | AC50
3 | O=C1C(Cl)=C(Oc2ccccc2)C(=O)c2ccccc21 | < 2.35 µM
4 | O=S(=O)(/C=C/c1ccccc1)NC1CCCCCCC1 | 19.8 µM
5 | CCOc1cc(S(=O)(=O)NC2CCCCCC2)ccc1F | 26.6 µM
6 | O=C(O)/C=C/c1cn(-c2ccccc2)nc1-c1cc2ccccc2o1 | 9.22 µM
7 | O=S(=O)(NC1CC2CCC1C2)c1ccc(Cl)cc1 (centres undefined) | 7.89 µM
8 | CCN(CC)c1ccc(/C=C2/SC(=O)N(C(C)C)C2=O)o1 | 12.3 µM
9 | O=S(=O)(NC1CCCCCC1)c1ccc(Br)s1 | 6.82 µM
